Here are results for one molecule from patent publication US20230041980A1, “METHOD OF PROTECTING A RESPIRATORY TRACT OR A LUNG FROM DAMAGE, METHOD OF PROTECTING A LUNG FROM PRESSURE DAMAGE INDUCED BY A VENTILATOR, METHOD OF SUPPRESSING SPREAD OF INFECTION WITH VIRUSES OR BACTERIA THAT CAUSE PNEUMONIA IN PULMONARY BRONCHIAL EPITHELIAL CELLS OR ALVEOLAR EPITHELIAL CELLS, AND …” (NEXT21 KABUSHIKI KAISHA, priority 2020, published 2023).

Test [1] deals with Asthma model mice. The test is described as follows: Airway resistance and compliance of OVA asthma model mice. It is filed as in vivo, BALB/c mice. The conditions noted are these: versus amount of muscarine receptor stimulant, inhalation, compared with OVA/OVA. The protocol:
(§1) Asthma model mice were produced using BALB/c mice (8 to 10 weeks old) and ovalbumin (OVA) serving as an antigen, and examinations were conducted by administering trehalose by inhalation. On the first day and the fourteenth day, a physiological saline solution or OVA was intraperitoneally administered. 20 micrograms of OVA was administered to one mouse using aluminum hydroxide as an adjuvant. From the twenty-seventh day to the thirty-first day, 10% trehalose or distilled water was administered by inhalation for 20 minutes every day. Moreover, from the twenty-eighth day to the thirtieth day, a physiological saline solution or 1% OVA was administered by inhalation for 20 minutes, 1 to 1.5 hours after the above-mentioned inhalation. On the thirty-second day, evaluation was conducted using an assay system for evaluating allergic airway inflammation and hyperresponsive airway.
The airway resistance and the compliance of the model mice of Example 1 were measured. […] On the other hand, FIGS. 2A and 2B also show the results of the experiment in which lactose was used instead of trehalose (OVA/OVA+Lac).

Test [2] deals with Asthma model mice. The test is described as follows: Numbers of inflammation-inducing cells in bronchoalveolar lavage fluid. It is filed as in vivo, BALB/c mice. The conditions noted are these: inhalation; compared with OVA/OVA; FIG. 4. The protocol:
as §1, with “airway. Bronchoalveolar lavage was performed on the model mice of Example 1, and the numbers of various cells obtained through the bronchoalveolar lavage were compared and examined. It should be noted that, in this example, 0.5 mL of a physiological saline solution containing 50 μg of ovalbumin (OVA) and 1 mg of aluminum hydroxide gel serving as an adjuvant was administered to OVA-administration mice (OVA/OVA) […]. […]” for “airway.”

Turning to `OC[C@H]1O[C@@H](O[C@H]2[C@H](O)[C@@H](O)C(O)O[C@@H]2CO)[C@H](O)[C@@H](O)[C@H]1O` (stereo partly drawn) [lactose, reference compound], the airway resistance entry in test [1] (FIG. 2A) is recorded as “does not have an action of suppressing an increase in the airway resistance”. Moreover, in test [1] (FIG. 2B), the compliance result is on record as “not different from each other”. In test [2], the “numbers of inflammation-inducing cells in bronchoalveolar lavage fluid (Total, Mo, Ly, Eo, Nt)” value is recorded as “does not have an action of suppressing the release of inflammation-inducing cells”.
